Data: patent US20110217324A1, “INHIBITORS OF ANTIGEN PRESENTATION BY MHC CLASS II MOLECULES AND METHODS OF USE THEREOF” (priority 2007, published 2011)
Numbered stars: 1 amine (or outer) side, 2 acyl side, 3 side chain; on linkers, the order of the positions; unused ones are H or OH. Square brackets hold non-standard residues; d marks the D form. Peptide text beside a SMILES is read from it. * marks the point of attachment. Phe(3,4-Cl2) = N[C@@H](Cc1ccc(Cl)c(Cl)c1)C(=O)O; X1 = O=C(C(Cc1ccc2[nH]c3ccccc3c2c1)N[*:1])[*:2]; X2 = O=C([C@H](Cc1cccc2[nH]cnc12)N[*:1])[*:2]; X7 = O=C([C@H](Cc1cccc2[nH]ncc12)N[*:1])[*:2]; X8 = Nc1nc(C[C@H](N[*:1])C(=O)[*:2])c[nH]1; X5 = O=C(C(Cc1cccc2[nH]ccc12)N[*:1])[*:2]; Oic = O=C(O)[C@@H]1C[C@@H]2CCCC[C@@H]2N1; Phe(4-F) = N[C@@H](Cc1ccc(F)cc1)C(=O)O; Gly(cPent) = N[C@H](C(=O)O)C1CCCC1; Lys(Me2) = CN(C)CCCC[C@H](N)C(=O)O; Igl = N[C@H](C(=O)O)C1Cc2ccccc2C1; hCit = NC(=O)NCCCC[C@H](N)C(=O)O; Tic = O=C(O)[C@@H]1Cc2ccccc2CN1; Cit = NC(=O)NCCC[C@H](N)C(=O)O; Chg = N[C@H](C(=O)O)C1CCCCC1; NHPhenethyl = c1ccc(CCN*)cc1; Tle = CC(C)(C)[C@H](N)C(=O)O; X3 = c1cc2cc(CCN*)ccc2[nH]1; X4 = c1cc(CCN*)c2cc[nH]c2c1; X6 = c1ccc2[nH]c(CCN*)cc2c1; Pip = O=C(O)[C@@H]1CCCCN1; Morpholide = C1CN(*)CCO1; Nva = CCC[C@H](N)C(=O)O

target: T1, MHC DR2 (DRB1*1501/DRA*0101) (Homo sapiens, UniProt P01903+P01911); experiment: HLA II Binding Assay (competition with biotinylated reference peptide); conditions: purified HLA-DR, biotinylated reference compound for DRB1*1501, 37° C. 24 h to 72 h; read-out: Inhibition of peptide binding IC50 (against MHC DR2 (DRB1*1501/DRA*0101))
T1 construct: endogenous in cells; host or cells: EBV homozygous (B lymphoblastoid) cell lines
Method: EBV homozygous cell lines are used as sources of human HLA class II molecules. […] The supernatant from lysed cells after centrifugation (100,000 g for 1 h) is applied to Sepharose 4B and protein A-Sepharose 4B columns and then to the specific antibody column. […] Fractions are immediately neutralized to pH 7 with 2 mM Tris-HCl (pH 6.8) and extensively dialyzed against 1 mM n-dodecyl β-D-maltoside, 150 mM NaCl, 10 mM phosphate (pH 7) buffer.
Samples (100 μl per well) are incubated in 96-wells polypropylene plates at 37° C. for 24 h to 72 h. After neutralization with 50 μl of 450 mM Tris HCl pH 7.5, 0.003% thimerosal, 0.3% BSA, 1 mM n-dodecyl β-D-maltoside buffer, samples are applied to 96-well maxisorp ELISA plates previously coated with 10 μg/ml L243 Mab and saturated with 100 mM Tris HCl pH=7.5, 0.3% BSA, and 0.003% thimerosal buffer. Samples are allowed to bind to the antibody-coated plates for 2 h at room temperature. Bound biotinylated compound is detected by incubating streptavidin-alkaline phosphatase conjugate, and after washings, by the addition of 4-methylumbelliferyl phosphate substrate. […] Maximal binding is determined by incubating the biotinylated peptide with the MHC class II molecule in the absence of competitor. Binding specificity is assessed by adding an excess of non-biotinylated peptide.

Compound	IC50 [nM]
CC(=O)N[C@H](C(=O)N[C@@H](CCCCN(C)C)C(=O)N1Cc2ccccc2C[C@H]1C(=O)N[C@@H](Cc1ccccc1)C(=O)N1CCCC[C@H]1C(N)=O)C1CCCC1 [Ac(Cpg)(diMeK)(Tic)F(homo Pro)] (Ac-[Gly(cPent)][Lys(Me2)][Tic]F[Pip]-NH2)	10 to 100
CC(=O)N[C@H](C(=O)N[C@@H](CCCNC(=N)N)C(=O)N1Cc2ccccc2C[C@H]1C(=O)N[C@@H](Cc1ccccc1)C(=O)N1CCCC[C@H]1C(=O)O)C1CCCC1 [Ac(Cpg)R(Tic)F(homo Pro)COOH] (Ac-[Gly(cPent)]R[Tic]F[Pip]-OH)	10 to 100
CO[C@H](C)[C@H](NC(C)=O)C(=O)N[C@H](C(=O)N[C@@H](CCCNC(=N)N)C(=O)N1Cc2ccccc2C[C@H]1C(=O)N[C@@H](Cc1ccccc1)C(N)=O)C1CCCCC1 [Ac(T(OMe))(Chg)R(Tic)F] (Ac-T(Me)[Chg]R[Tic]F-NH2)	1 to 10
CC(=O)N[C@H](C(=O)N[C@H](C(=O)N[C@@H](CCCNC(=N)N)C(=O)N1Cc2ccccc2C[C@H]1C(=O)N[C@@H](Cc1ccccc1)C(N)=O)C1CCCCC1)[C@@H](C)O [Ac(Thr)(Chg)R(Tic)F] (Ac-T[Chg]R[Tic]F-NH2)	10 to 100
CCC[C@H](NC(C)=O)C(=O)N[C@H](C(=O)N[C@@H](CCCNC(=N)N)C(=O)N1Cc2ccccc2C[C@H]1C(=O)N[C@@H](Cc1ccccc1)C(N)=O)C1CCCCC1 [Ac(nor-V)(Chg)R(Tic)F] (Ac-[Nva][Chg]R[Tic]F-NH2)	1 to 10
CC(=O)N[C@H](C(=O)N[C@H](C(=O)N[C@@H](CCCNC(=N)N)C(=O)N1Cc2ccccc2C[C@H]1C(=O)N[C@@H](Cc1ccccc1)C(N)=O)C1CCCCC1)C(C)(C)C [Ac(t-BuG)(Chg)R(Tic)F] (Ac-[Tle][Chg]R[Tic]F-NH2)	1 to 10
CC(=O)N[C@H](C(=O)N[C@H](C(=O)N[C@@H](Cc1c[nH]c(N)n1)C(=O)N1Cc2ccccc2C[C@H]1C(=O)N[C@@H](Cc1ccccc1)C(N)=O)C1CCCCC1)C(C)C [AcV(Chg)(2-amino His)(Tic)F] (Ac-V[Chg][X8][Tic]F-NH2)	10 to 100
CC(=O)N[C@H](C(=O)N[C@H](C(=O)N[C@@H](CCCNC(N)=O)C(=O)N1Cc2ccccc2C[C@H]1C(=O)N[C@@H](Cc1ccccc1)C(N)=O)C1CCCCC1)C(C)C [AcV(Chg)(Cit)(Tic)F] (Ac-V[Chg][Cit][Tic]F-NH2)	1 to 10
CC(=O)N[C@H](C(=O)N[C@H](C(=O)N[C@@H](CCCCNC(N)=O)C(=O)N1Cc2ccccc2C[C@H]1C(=O)N[C@@H](Cc1ccccc1)C(N)=O)C1CCCCC1)C(C)C [AcV(Chg)(homo Cit)(Tic)F] (Ac-V[Chg][hCit][Tic]F-NH2)	1 to 10
CC(=O)N[C@H](C(=O)N[C@H](C(=O)N[C@@H](C)C(=O)N1Cc2ccccc2C[C@H]1C(=O)N[C@@H](Cc1ccccc1)C(N)=O)C1CCCCC1)C(C)C [AcV(Chg)A(Tic)F] (Ac-V[Chg]A[Tic]F-NH2)	10 to 100
CC(=O)N[C@H](C(=O)N[C@H](C(=O)N[C@@H](Cc1c[nH]cn1)C(=O)N1Cc2ccccc2C[C@H]1C(=O)N[C@@H](Cc1ccccc1)C(N)=O)C1CCCCC1)C(C)C [AcV(Chg)H(Tic)F] (Ac-V[Chg]H[Tic]F-NH2)	10 to 100
CC(=O)N[C@H](C(=O)N[C@H](C(=O)N[C@@H](CCCNC(=N)N)C(=O)N1[C@H](C(=O)N[C@@H](Cc2ccccc2)C(N)=O)C[C@@H]2CCCC[C@@H]21)C1CCCCC1)C(C)C [AcV(Chg)R(Oic)F] (Ac-V[Chg]R[Oic]F-NH2)	100 to 1000
CC(=O)N[C@H](C(=O)N[C@H](C(=O)N[C@@H](CCCNC(=N)N)C(=O)N1Cc2ccccc2C[C@H]1C(=O)NCCc1cc2ccccc2[nH]1)C1CCCCC1)C(C)C [AcV(Chg)R(Tic)(2-ethylaminoindole)] (Ac-V[Chg]R[Tic]-X6)	100 to 1000
CC(=O)N[C@H](C(=O)N[C@H](C(=O)N[C@@H](CCCNC(=N)N)C(=O)N1Cc2ccccc2C[C@H]1C(=O)N[C@@H](Cc1ccc(Cl)c(Cl)c1)C(N)=O)C1CCCCC1)C(C)C [AcV(Chg)R(Tic)(3,4-dichloro Phe)] (Ac-V[Chg]R[Tic][Phe(3,4-Cl2)]-NH2)	1 to 10
CC(=O)N[C@H](C(=O)N[C@H](C(=O)N[C@@H](CCCNC(=N)N)C(=O)N1Cc2ccccc2C[C@H]1C(=O)N[C@@H](Cc1cccc2[nH]ncc12)C(N)=O)C1CCCCC1)C(C)C [AcV(Chg)R(Tic)(4-Indazole)] (Ac-V[Chg]R[Tic][X7]-NH2)	1 to 10
CC(=O)N[C@H](C(=O)N[C@H](C(=O)N[C@@H](CCCNC(=N)N)C(=O)N1Cc2ccccc2C[C@H]1C(=O)N[C@@H](Cc1cccc2[nH]cnc12)C(N)=O)C1CCCCC1)C(C)C [AcV(Chg)R(Tic)(4-benzimidazole)] (Ac-V[Chg]R[Tic][X2]-NH2)	10 to 100
CC(=O)N[C@H](C(=O)N[C@H](C(=O)N[C@@H](CCCNC(=N)N)C(=O)N1Cc2ccccc2C[C@H]1C(=O)NCCc1cccc2[nH]ccc12)C1CCCCC1)C(C)C [AcV(Chg)R(Tic)(4-ethylaminoindole)] (Ac-V[Chg]R[Tic]-X4)	100 to 1000
CC(=O)N[C@H](C(=O)N[C@H](C(=O)N[C@@H](CCCNC(=N)N)C(=O)N1Cc2ccccc2C[C@H]1C(=O)N[C@@H](Cc1ccc(F)cc1)C(N)=O)C1CCCCC1)C(C)C [AcV(Chg)R(Tic)(4′-F Phe)] (Ac-V[Chg]R[Tic][Phe(4-F)]-NH2)	1 to 10
CC(=O)N[C@H](C(=O)N[C@H](C(=O)N[C@@H](CCCNC(=N)N)C(=O)N1Cc2ccccc2C[C@H]1C(=O)NCCc1ccc2[nH]ccc2c1)C1CCCCC1)C(C)C [AcV(Chg)R(Tic)(5-ethylaminoindole)] (Ac-V[Chg]R[Tic]-X3)	100 to 1000
CC(=O)N[C@H](C(=O)N[C@H](C(=O)N[C@@H](CCCNC(=N)N)C(=O)N1Cc2ccccc2C[C@H]1C(=O)N[C@@H](Cc1c[nH]c2ccccc12)C(N)=O)C1CCCCC1)C(C)C [AcV(Chg)R(Tic)(Trp)] (Ac-V[Chg]R[Tic]W-NH2)	1 to 10
(NH2-Beta Ala)V(Chg)(pyrimidinyl)(Tic)F	10 to 100

More lines, now with the values ahead:

IC50 [nM]	Compound
100 to 1000	CC(=O)N[C@H](C(=O)N[C@H](C(=O)N[C@@H](CCCNC(=N)N)C(=O)N1Cc2ccccc2C[C@H]1C(=O)NCCc1ccccc1)C1CCCCC1)C(C)C [AcV(Chg)R(Tic)(phenethylamide)] (Ac-V[Chg]R[Tic]-NHPhenethyl)
100 to 1000	CC(=O)N[C@H](C(=O)N[C@H](C(=O)N[C@@H](CCCNC(=N)N)C(=O)N1Cc2ccccc2C[C@H]1C(=O)NC(Cc1ccc2[nH]c3ccccc3c2c1)C(N)=O)C1CCCCC1)C(C)C (some centres unmarked) [AcV(Chg)R(Tic)-(3′-Carbazolyl Ala)] (Ac-V[Chg]R[Tic][X1]-NH2)
1 to 10	CC(=O)N[C@H](C(=O)N[C@H](C(=O)N[C@@H](CCCNC(=N)N)C(=O)N1Cc2ccccc2C[C@H]1C(=O)NC(Cc1cccc2[nH]ccc12)C(N)=O)C1CCCCC1)C(C)C (some centres unmarked) [AcV(Chg)R(Tic)-(4′-Indolyl Ala)] (Ac-V[Chg]R[Tic][X5]-NH2)
10 to 100	CC(=O)N[C@H](C(=O)N[C@H](C(=O)N[C@@H](CCCNC(=N)N)C(=O)N1Cc2ccccc2C[C@H]1C(=O)N[C@@H](Cc1ccccc1)C(=O)N1CCOCC1)C1CCCCC1)C(C)C [AcV(Chg)R(Tic)F-CO(morpholine)] (Ac-V[Chg]R[Tic]F-Morpholide)
10 to 100	CNC(=O)[C@H](Cc1ccccc1)NC(=O)[C@@H]1Cc2ccccc2CN1C(=O)[C@H](CCCNC(=N)N)NC(=O)[C@@H](NC(=O)[C@@H](NC(C)=O)C(C)C)C1CCCCC1 [AcV(Chg)R(Tic)F-CONHMe] (Ac-V[Chg]R[Tic]F-NHMe)
10 to 100	CC(=O)N[C@H](C(=O)N[C@H](C(=O)N[C@@H](CCCNC(=N)N)C(=O)N1Cc2ccccc2C[C@H]1C(=O)N[C@@H](Cc1ccccc1)C(=O)O)C1CCCCC1)C(C)C [AcV(Chg)R(Tic)F-COOH] (Ac-V[Chg]R[Tic]F-OH)
10 to 100	CC(=O)N[C@H](C(=O)N[C@H](C(=O)N[C@@H](CCCNC(=N)N)C(=O)N1CCCC[C@H]1C(=O)N[C@@H](Cc1ccccc1)C(N)=O)C1CCCCC1)C(C)C [AcV(Chg)R(homo Pro)F] (Ac-V[Chg]R[Pip]F-NH2)
1 to 10	CC(=O)N[C@H](C(=O)N[C@H](C(=O)N[C@@H](CCCNC(=N)N)C(=O)N1Cc2ccccc2C[C@H]1C(=O)N[C@@H](Cc1ccccc1)C(N)=O)C1CCCC1)C(C)C [AcV(Cpg)R(Tic)F] (Ac-V[Gly(cPent)]R[Tic]F-NH2)
10 to 100	CC(=O)N[C@H](C(=O)N[C@H](C(=O)N[C@@H](CCCNC(=N)N)C(=O)N1Cc2ccccc2C[C@H]1C(=O)N[C@@H](Cc1ccccc1)C(=O)N1CCOCC1)C1Cc2ccccc2C1)C(C)C [AcV(Indgly)R(Tic)F-CO(morpholine)] (Ac-V[Igl]R[Tic]F-Morpholide)
1 to 10	CNC(=O)[C@H](Cc1ccccc1)NC(=O)[C@@H]1Cc2ccccc2CN1C(=O)[C@H](CCCNC(=N)N)NC(=O)[C@@H](NC(=O)[C@@H](NC(C)=O)C(C)C)C1Cc2ccccc2C1 [AcV(Indgly)R(Tic)F-CONHMe] (Ac-V[Igl]R[Tic]F-NHMe)
10 to 100	CC(=O)N[C@H](C(=O)N[C@H](C(=O)N[C@@H](CCCNC(=N)N)C(=O)N1Cc2ccccc2C[C@H]1C(=O)N[C@@H](Cc1ccccc1)C(N)=O)C1Cc2ccccc2C1)C(C)C [AcV(Indgly)R(Tic)F] (Ac-V[Igl]R[Tic]F-NH2)
